Laboratory results: patent EP2742955A1, “Nanoparticles based on bioconjugate of GAG” (Centre National de la Recherche Scientifique, priority 2012, dated 2014)

What was measured:
[1] = Plasma Fpx concentration (anti-FXa assay) after oral and intravenous administration of aqueous nanoparticulate suspensions; format: in vivo, male Sprague-Dawley rats
Description: The anticoagulant activity of Fpx:Sq^+ aqueous nanoparticulate suspensions of example 4 was evaluated in vivo after oral and intravenous (IV) administration in male Sprague-Dawley rats. The following formulations were administrated orally to the rats (n=4) with the help of feeding needle (Harvard Apparatus, France): NPs at the optimized ratio 1:6 at 25 mg/kg (eq. Fpx) and 50 mg/kg (eq. Fpx), Fpx saline solution at 50 mg/kg and isotonic sodium chloride solution as control. The volume of the administrated solution was 1 mL per 100 g of the rat weight. Blood samples were periodically taken from the jugular vein after anesthesia with isoflurane and the plasma concentration of active Fpx was estimated using an anti-FXa assay. Additionally, a saline solution of Fpx and NPs at the optimized ratio 1:6, both at 200 µg/kg (eq. Fpx) were injected intravenously to the rats (n=3) through the tail vein after anesthesia with isoflurane. Blood samples were periodically taken and the plasma concentration of active Fpx was estimated using an anti-FXa assay. […]

[2] = Permeation of Fpx across fresh intestinal tissue in Ussing-type chambers; format: in vitro ADME, male Sprague Dawley rats
Description: The permeation of Fpx in solution was investigated through the intestinal epithelium at 37°C, in the two directions (mucosal-to-serosal, M-S, absorptive direction and serosal-to-mucosal, S-M, secretory direction) and in presence or not of verapamil, an inhibitor of P-gp (P-glycoprotein) (Fig. 3).
Ussing-type chambers were used to evaluate the permeation of Fpx in fresh intestinal tissues, under the free form and loaded in NPs. For permeation studies non fasting male Sprague Dawley rats weighting 250 to 300 g were used. After sacrificing the rats, jejunum from fresh small intestine was excised and rinsed with chilled physiological solution (isotonic Sorensen's Phosphate buffer solution: 0.2 mM Na2HPO4; 0.2 mM NaH2PO4, H2O with a pH of 6.8). The excised intestine was cut into segments of 2 - 3 cm length and mounted in Ussing chamber (0.75 cm^2 surface area) bathed with Sorensen buffer pH 6.8 in mucosal and serosal sides. The system was maintained at 37°C and continuously oxygenated with O2/CO2 (95% /5%). After equilibration at the temperature of the experiment (15 min), Fpx in solution or loaded in NPs at the concentration of 2 mg/mL were added to the donor compartment. For this purpose, 1.2 mL of Fpx:Sq^+ NPs (at Fpx concentration of 5 mg/mL were diluted in 1.8 mL of Sorensen buffer pH 6.8 prior to the addition to the donor chamber. After 0, 30, 60, 90, 120, 150 and 180 min, 500 µL samples were taken out from the acceptor chambers and replaced with the same volume of fresh transport medium pre-equilibrated at 37°C. The samples were stored at 4°C until analysis. Fpx was quantified by the Azure A assay and Anti-Xa assay. The influence of verapamil was investigated on the intestinal permeation of Fpx in solution and loaded in NPs. For this purpose, verapamil was added to the Sorensen buffer at the concentration of 0.1 mM in the serosal compartment five minutes before the experiment.
Thus, figure 3 is a diagram showing a comparison of the permeation of Fpx across the intestinal tissue under the following experimental conditions: mucosal-to-serosal direction (M-S, continuous lines); serosal-to-mucosal direction (S-M, broken line) and in presence (open symbols) or in absence (filled symbols) of verapamil. Donor chambers contained initially 2 mg/mL of Fpx. Data represent means ± SEM of at least six independent experiments.
Donor chambers contained 2 mg/mL of Fpx and Sq^+ in molar ratio Fpx to Sq^+ 1:6. Data represent means ± SEM of at least six independent experiments.
At last, figure 5 represents a diagram showing net fluxes of Fpx in free form or in Fpx:Sq+ NPs in the presence or in the absence of verapamil when added in serosal side at 180 min. Values are indicated as means SEM at least six experiments. (** p< 0.05) Fpx:Sq^+ NPs vs Fpx:Sq NPs + verapamil; (* p< 0.05) Fpx vs Fpx:Sq^+ NPs; (**** p<0.05) Fpx + verapamil vs Fpx.

For `CO[C@H]1O[C@H](COS(=O)(=O)O)[C@@H](O[C@@H]2O[C@@H](C(=O)O)[C@@H](O[C@H]3O[C@H](COS(=O)(=O)O)[C@@H](O[C@@H]4O[C@H](C(=O)O)[C@@H](O[C@H]5O[C@H](COS(=O)(=O)O)[C@@H](O)[C@H](O)[C@H]5NS(=O)(=O)O)[C@H](O)[C@H]4O)[C@H](OS(=O)(=O)O)[C@H]3NS(=O)(=O)O)[C@H](O)[C@H]2OS(=O)(=O)O)[C@H](O)[C@H]1NS(=O)(=O)O` [Fpx, Fondaparinux], the Cmax ([1]; male, Sprague-Dawley, rat, plasma, 200 ug/kg, intravenous, 200 µg/kg (eq. Fpx), rats n=3, read-out: maximum plasma concentration (Cmax)) was 160 ng/mL, the “oral absorption (concentration-time profile vs control group)” value ([1]; oral, saline solution 50 mg/kg) was “not absorbed” and the “permeated Fpx concentration” value ([2]; M-S direction, 120 min, absence of verapamil, donor 2 mg/mL Fpx, 37°C) was 4.5 µg/mL. For the same compound, the “permeated Fpx concentration” value ([2]; M-S direction, 180 min, absence of verapamil, donor 2 mg/mL Fpx, 37°C) was 4.9 µg/mL, the “permeated Fpx concentration” value ([2]; M-S direction, 180 min, verapamil 0.1 mM in the receptor (serosal) compartment) was 12.6 µg/mL and the “permeated Fpx concentration” value ([2]; S-M direction, 180 min, absence of verapamil, donor 2 mg/mL Fpx, 37°C) was 7.8 µg/mL. The “factor of increase of Fpx fluxes in the presence of verapamil” value ([2]; net fluxes at 180 min, verapamil in serosal side, vs free Fpx) was 4.2.
